Assays:
[1] = biological target: BACE 1 (beta secretase enzyme) (Homo sapiens, UniProt P56817); assay: In vitro enzymatic BACE FRET assay; assay type: biochemical; conditions: average IC50, pH 4.2
Procedure: In Vitro Enzymatic BACE FRET (Fluorescence Resonance Energy Transfer) Assay
The assay buffer used in this screen is 0.05 M acetate, pH 4.2, 10% DMSO final, 100 uM genapol (which is a nonionic detergent, below its Critical Micelle Concentration). The beta secretase enzyme (0.2 nM) is pre-incubated for one hour with inhibitors, typically in about 1 uL of DMSO according to a serial dilution, are added thereto. This assay is effectively started by the addition of FRET substrate (50 nM) and the combination is incubated for one hour. The FRET assay is terminated with by addition of Tris buffer, which raises the pH to neutrality, and the fluorescence is determined. The FRET substrate is a peptide with commercially available fluorophore and quencher, on opposite sides of the BACE cleavage site. Proteolytic cleavage of the FRET substrate releases quenching of fluorescence (excitation […] and […]).

[2] = tested on: Aβ40 in conditioned medium of cells stably expressing Amyloid Precursor Protein (APP); assay: In vitro BACE cell-based assay (HEK cell assay, Aβ40 sandwich ELISA); conditions: average IC50, Aβ40, 24 h incubation
Procedure: In Vitro BACE Cell-Based Assay
The cell-based assay measures inhibition or reduction of Aβ40 in conditioned medium of test compound treated cells expressing amyloid precursor protein.
Cells stably expressing Amyloid Precursor Protein (APP) were plated at a density of 40K cells/well in 96 well plates (Costar). The cells were cultivated for 24 hours at 37° C. and 5% CO2 in DMEM supplemented with 10% FBS. The test compounds were then added to cells in 10-point dose response concentrations with the starting concentration being either 100 μM or 10 μM. The compounds were diluted from stock solutions in DMSO and the final DMSO concentration of the test compounds on cells was 0.1%. After 24 h of incubation with the test compounds the supernatant conditioned media was collected and the Aβ 40 levels were determined using a sandwich ELISA. The IC50 of the compound was calculated from the percent of control or percent inhibition of Aβ 40 as a function of the concentration of the test compound.
The sandwich ELISA to detect Aβ 40 was performed in 96 well microtiter plates, which were pre-treated with goat anti-rabbit IgG (Pierce). The capture and detecting antibody pair that were used to detect Aβ 40 from cell supernatants were affinity purified pAb40 (Biosource) and biotinylated 6E10 (Signet Labs Inc.), respectively. The optimal concentration for the pAb40 antibody was 3 μg/ml in Superblock/TBS (Pierce) that was supplemented with 0.05% Tween 20 (Sigma). Optimal concentration for the detection antibody 6E10-biotinylated was 0.5 μg/ml in Superblock/TBS (Pierce) that had been supplemented with 2% normal goat serum and 2% normal mouse serum.
Cellular supernatants were incubated with the capture antibody for 3 h at 4° C., followed by 3 wash steps in TBS-tween (0.05%). The detecting antibody incubation was for 2 h at 4° C., again followed by the wash steps as described previously. The final readout of the ELISA is Time-Resolved Fluorescence (counts per minute) using Delfia reagents Streptavidin-Europium and Enhancement solutions (Perkin Elmer) and the Victor 2 multilabel counter (Perkin Elmer).

[3] = biological target: T1, Cathepsin D (Homo sapiens, UniProt P07339); assay: In vitro enzymatic Cat D (Cathepsin D) FRET assay; assay type: biochemical; conditions: average IC50, pH 3.5
T1 construct: made in house; host or cells: CHO cells
Procedure: In Vitro Enzymatic Cat D (Cathepsin D) FRET (Fluorescence Resonance Energy Transfer) Assay
Recombinant CathepsinD was expressed in CHO cells. The assay buffer for CathepsinD is 0.05 M citrate pH 3.5, 10% DMSO final, 5 mM CHAPS. The CathepsinD enzyme (9 nM) is pre-incubated for one hour with inhibitors, typically in about 1 uL of DMSO according to a serial dilution, is added thereto. The assays are effectively started by the addition of different FRET substrates (20 nM for CathepsinD) and the combination is incubated for one hour. The FRET assay is terminated with by addition of Tris buffer, which raises the pH to neutrality, and the fluorescence is determined. The FRET substrate is a peptide with commercially available fluorophore and quencher, on opposite sides of the BACE cleavage site. The CathepsinD substrate peptide sequence is based on sequence #1 of Table 1 from Gulnik et al. FEBS Letters v413 p 379-384 1997. Proteolytic cleavage of the FRET substrate releases quenching of fluorescence (CathepsinD excitation 500 nm and emission 580 nm). […]

[4] = tested on: Abeta 40; assay: In vivo inhibition of beta-secretase: Abeta 40 reduction in rat CSF and brain; conditions: after 4 hrs; for % reduction of rat CSF Abeta 40 levels at 10 mpk: Abeta 40, rat CSF; for % reduction of rat brain levels at 10 mpk: Abeta 40, rat brain
Text: In Vivo Inhibition of Beta-Secretase
Several animal models, including mouse, rat, dog, and monkey, may be used to screen for inhibition of beta-secretase activity in vivo following administration of a test compound sample. Animals used in this invention can be wild type, transgenic, or gene knockout animals. For example, the Tg2576 mouse model, prepared and conducted as described in Hsiao et al., 1996, Science 274, 99-102, and other non-transgenic or gene knockout animals are useful to analyze in vivo inhibition of Amyloid beta peptide (Abeta) production in the presence of inhibitory test compounds. Generally, 2 to 18 month old Tg2576 mice, gene knockout mice or non-transgenic animals are administered test compounds formulated in vehicles, such as cyclodextran, phosphate buffers, hydroxypropyl methylcellulose or other suitable vehicles. One to twenty-four hours following the administration of compound, animals are sacrificed, and brains as well as cerebrospinal fluid (CSF) and plasma are removed for analysis of A-beta levels and drug or test compound concentrations (Dovey et al., 2001, Journal of Neurochemistry, 76, 173-181) Beginning at time 0, animals are administered by oral gavage, or other means of delivery such as intravenous injection, an inhibitory test compound of up to 100 mg/kg in a standard, conventional formulation, such as 2% hydroxypropyl methylcellulose, 1% Tween80. A separate group of animals receive 2% hydroxypropyl methylcellulose, 1% Tween80 alone, containing no test compound, and serve as a vehicle-control group. At the end of the test period, animals are sacrificed and brain tissues, plasma or cerebrospinal fluid are collected. Brains are either homogenized in 10 volumes (w/v) of 0.2% diethylamine (DEA) in 50 mM NaCl (Best et al., 2005, Journal of Pharmacology and Experimental Therapeutics, 313, 902-908), or in 10 volumes of 0.5% TritonX-100 in Tris-buffered saline (pH at about 7.6). Homogenates are centrifuged at 355,000 g, 4° C. for 30 minutes. CSF or brain supernatants are then analyzed for the presence of A-beta peptide by specific sandwich ELISA assays based on ECL (Electrochemiluminescence) technology. For example, rat Abeta40 is measured using biotinylated-4G8 (Signet) as a capture antibody and Fab40 (an in-house antibody specific to the C-terminal of Abeta40) as a detection antibody. For example, 4 hours after administration of 30 mg/kg oral dose of the test compound in 2% hydroxypropyl methylcellulose, 1% Tween80 (pH2.2) to 200 g male Sprague Dawley rats, amyloid beta peptide levels are measured for reduction by X % and Y % in cerebrospinal fluid and brain, respectively, when compared to the levels measured in the vehicle-treated rats.
Actual vehicles used: Oral: 2% HPMC, 1% Tween80, pH 2.2
The compounds of the invention may be shown to reduce the formation and/or deposition of amyloid beta peptide in the cerebrospinal fluid (CSF) as well as in the brain of a mouse or rat at either 3 mpk, 10 mpk or 30 mpk (mpk=mg compound per kg weight of the animal) dosing concentrations after 4 hrs.

Sequence of BACE 1 (beta secretase enzyme) (P56817 46-501): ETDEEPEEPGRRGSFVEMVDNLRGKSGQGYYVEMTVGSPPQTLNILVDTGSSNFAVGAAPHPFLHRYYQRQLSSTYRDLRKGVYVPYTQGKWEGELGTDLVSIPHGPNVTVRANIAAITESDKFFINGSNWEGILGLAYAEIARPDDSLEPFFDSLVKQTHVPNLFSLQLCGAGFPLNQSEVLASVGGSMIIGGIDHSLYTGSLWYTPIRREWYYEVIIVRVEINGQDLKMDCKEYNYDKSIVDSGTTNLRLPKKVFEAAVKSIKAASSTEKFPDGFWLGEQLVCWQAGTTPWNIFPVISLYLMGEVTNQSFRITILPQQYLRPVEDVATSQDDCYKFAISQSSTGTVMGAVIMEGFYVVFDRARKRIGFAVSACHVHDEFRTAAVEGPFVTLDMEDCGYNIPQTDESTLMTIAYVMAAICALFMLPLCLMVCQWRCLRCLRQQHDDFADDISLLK
T1 sequence (P07339 65-412, species assumed): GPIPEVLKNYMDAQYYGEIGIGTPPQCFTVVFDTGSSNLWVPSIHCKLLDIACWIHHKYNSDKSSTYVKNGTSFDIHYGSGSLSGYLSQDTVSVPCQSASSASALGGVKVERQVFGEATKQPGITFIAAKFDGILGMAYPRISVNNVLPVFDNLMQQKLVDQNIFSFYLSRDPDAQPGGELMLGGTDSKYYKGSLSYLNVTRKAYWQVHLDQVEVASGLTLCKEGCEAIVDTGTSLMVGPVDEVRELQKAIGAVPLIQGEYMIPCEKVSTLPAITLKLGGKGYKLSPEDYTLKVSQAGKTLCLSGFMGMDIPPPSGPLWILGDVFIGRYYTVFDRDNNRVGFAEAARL

SMILES | IC50 [1] | IC50 ([2]; Homo sapiens, HEK293) | IC50 [3] | % reduction of rat CSF Abeta 40 levels at 10 mpk [4] | % reduction of rat brain levels at 10 mpk [4] | IC50 [2]
COc1cnc2c(Nc3ccc4c(c3)[C@@]3(CCOC(N)=N3)c3cc(C5=CCOCC5)ncc3O4)ccnc2c1 [Example 33] | 19.4 nM |  |  |  |  | 0.4 nM
COc1cnc2c(Nc3ccc4c(c3)[C@@]3(CCOC(N)=N3)c3cc(Cl)nc(F)c3O4)nccc2c1 [Example 35, (5S)-3-chloro-1-fluoro-N-~7~-(3-methoxy-1,7-naphthyridin-8-yl)-5′,6′-dihydrospiro[chromeno[2,3-c]pyridine-5,4′-[1,3]oxazine]-2′,7-diamine] | 97.2 nM | 35.3 nM | 400000 nM |  |  | 
COc1cnc2c(Nc3ccc4c(c3)[C@@]3(CCSC(N)=N3)c3cc(-c5ccnc(F)c5)nc(F)c3O4)nccc2c1 [Example 39, (5S)-1-fluoro-3-(2-fluoro-4-pyridinyl)-N~7~-(3-methoxy-1,7-naphthyridin-8-yl)-5′,6′-dihydrospiro[chromeno[2,3-c]pyridine-5,4′-[1,3]thiazine]-2′,7-diamine] | 3.2 nM | 12.3 nM | 338000 nM |  |  | 
COc1cnc2c(Nc3ccc4c(c3)[C@@]3(CCSC(N)=N3)c3cc(-c5ccnc(OC(C)C)c5)nc(F)c3O4)nccc2c1 [Example 40, (5S)-1-fluoro-N~7~-(3-methoxy-1,7-naphthyridin-8-yl)-3-(2-(1-methylethoxy)-4-pyridinyl)-5′,6′-dihydrospiro[chromeno[2,3-c]pyridine-5,4′-[1,3]thiazine]-2′,7-diamine] | 15.6 nM | 138 nM | 400000 nM |  |  | 
COc1cnc2c(Nc3ccc4c(c3)[C@@]3(CCOC(N)=N3)c3cc(C5CC5)ncc3O4)nccc2n1 [Example 42, (5S)-3-cyclopropyl-N~7~-(2-methoxypyrido[3,4-b]pyrazin-5-yl)-5′,6′-dihydrospiro[chromeno[2,3-c]pyridine-5,4′-[1,3]oxazine]-2′,7-diamine] | 6.9 nM | 2.6 nM | 400000 nM |  |  | 
Cc1nc2c(Nc3ccc4c(c3)[C@@]3(CCOC(N)=N3)c3cc(C5=CCOCC5)ncc3O4)nccc2s1 [Example 44, (5S)-3-(3,6-dihydro-2H-pyran-4-yl)-N~7~-(2-methyl[1,3]thiazolo[4,5-c]pyridin-4-yl)-5′,6′-dihydrospiro[chromeno[2,3-c]pyridine-5,4′-[1,3]oxazine]-2′,7-diamine] | 5.3 nM | 4.1 nM | 400000 nM |  |  | 

Second part, led by results:

IC50 [1] | IC50 ([2]; Homo sapiens, HEK293) | IC50 [3] | SMILES | % reduction of rat CSF Abeta 40 levels at 10 mpk [4] | % reduction of rat brain levels at 10 mpk [4] | IC50 [2]
4.3 nM | 5.3 nM | 313000 nM | COc1cnc2c(Nc3ccc4c(c3)[C@@]3(CCSC(N)=N3)c3cc(C5=CCCOC5)nc(F)c3O4)nccc2c1 [Example 31, (5S)-3-(5,6-dihydro-2H-pyran-3-yl)-1-fluoro-N~7~-(3-methoxy-1,7-naphthyridin-8-yl)-5′,6′-dihydrospiro[chromeno[2,3-c]pyridine-5,4′-[1,3]thiazine]-2′,7-diamine] |  |  | 
4.4 nM | 3.3 nM | 373000 nM | COc1cnc2c(Nc3ccc4c(c3)[C@@]3(CCSC(N)=N3)c3cc(C5=CCOCC5)nc(F)c3O4)nccc2c1 [Example 32, (5S)-3-(3,6-dihydro-2H-pyran-4-yl)-1-fluoro-N~7~-(3-methoxy-1,7-naphthyridin-8-yl)-5′,6′-dihydrospiro[chromeno[2,3-c]pyridine-5,4′-[1,3]thiazine]-2′,7-diamine] | 71% | 47% | 
13.2 nM | 5.4 nM | 336000 nM | COc1cnc2c(Nc3ccc4c(c3)[C@@]3(CCSC(N)=N3)c3cc(C5=CCCOC5)ncc3O4)nccc2c1 [Example 34, (5S)-3-(5,6-dihydro-2H-pyran-3-yl)-N~7~-(3-methoxy-1,7-naphthyridin-8-yl)-5′,6′-dihydrospiro[chromeno[2,3-c]pyridine-5,4′-[1,3]thiazine]-2′,7-diamine] | 44% | 5% | 
11.3 nM | 2.7 nM | 133000 nM | COc1cnc2c(Nc3ccc4c(c3)[C@@]3(CCOC(N)=N3)c3cc(C(C)C)ncc3O4)nccc2c1 [Example 36, (5S)-N~7~-(3-methoxy-1,7-naphthyridin-8-yl)-3-(1-methylethyl)-5′,6′-dihydrospiro[chromeno[2,3-c]pyridine-5,4′-[l,3]oxazine]-2′,7-diamine] | 58% | 19% | 
3.2 nM | 16 nM | 400000 nM | COc1cnc2c(Nc3ccc4c(c3)[C@@]3(CCSC(N)=N3)c3cc(-c5cncc(F)c5)nc(F)c3O4)nccc2c1 [Example 41, (5S)-1-fluoro-3-(5-fluoro-3-pyridinyl)-N~7~-(3-methoxy-1,7-naphthyridin-8-yl)-5′,6′-dihydrospiro[chromeno[2,3-c]pyridine-5,4′-[1,3]thiazine]-2′,7-diamine] |  |  | 
14.8 nM | 2.6 nM | 400000 nM | COc1cnc2c(Nc3ccc4c(c3)[C@@]3(CCOC(N)=N3)c3cc(C5=CCOCC5)ncc3O4)nccc2c1 [Example 43, (5S)-3-(3,6-dihydro-2H-pyran-4-yl)-N~7~-(3-methoxy-1,7-naphthyridin-8-yl)-5′,6′-dihydrospiro[chromeno[2,3-c]pyridine-5,4′-[1,3]oxazine]-2′,7-diamine] |  |  | 
